Our source for the TGI values is PubChem BioAssay (NCI).

Some test systems named below: A549 NSCLC; CAKI-1 renal; COLO 205 colon; HS 578T breast; M14 melanoma; NCI-H460 lung; SK-MEL-5 melanoma; SNB-19 CNS; UO-31 renal; SK-OV-3 ovarian.
Common to all, as to assay: NCI-60 cell line screen, 48 h

Each structure is given as a SMILES string.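 Cells were grown in 96-well plates and exposed to each compound for 48 hours at five concentrations; endpoints were interpolated linearly between bracketing concentrations, or set to the highest concentration if not reached. TGI: concentration producing complete growth inhibition.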

For the compound `CC(=O)OC/C=C/Cn1nc(Br)c(=O)[nH]c1=O`, the TGI in the experiment with A549 NSCLC, in the experiment with CAKI-1 renal, with COLO 205 colon, in the experiment on HS 578T breast, in the experiment with M14 melanoma and in the experiment with NCI-H460 lung was more than 100 µM throughout. The TGI in the experiment on SK-MEL-5 melanoma, in the experiment on SNB-19 CNS and with UO-31 renal was more than 100 µM throughout.
On to `O=CC12CCCN1CCC2`, for which the TGI with A549 NSCLC, in the experiment with CAKI-1 renal, in the experiment on COLO 205 colon, in the experiment on M14 melanoma, in the experiment on NCI-H460 lung and in the experiment on SK-MEL-5 melanoma was more than 100 µM in each case. The TGI in the experiment with SK-OV-3 ovarian, in the experiment on SNB-19 CNS and in the experiment with UO-31 renal was more than 100 µM throughout.
With `O=C1Cc2c([nH]c3c(Br)cccc23)-c2ccccc2N1`, the TGI in the experiment on A549 NSCLC, with COLO 205 colon, with HS 578T breast, in the experiment with M14 melanoma, in the experiment on NCI-H460 lung and in the experiment with SK-MEL-5 melanoma was more than 100 µM each time. Further, the TGI in the experiment on SK-OV-3 ovarian, in the experiment with SNB-19 CNS and with UO-31 renal was more than 100 µM in each case.
With `CN(C)c1ccc(/C=C2\CCCCCC2=O)cc1`, the TGI with A549 NSCLC, in the experiment on CAKI-1 renal, in the experiment with COLO 205 colon, in the experiment on M14 melanoma, with NCI-H460 lung and in the experiment with SK-MEL-5 melanoma was more than 100 µM throughout. In addition, the TGI in the experiment on SK-OV-3 ovarian, in the experiment with SNB-19 CNS and with UO-31 renal was more than 100 µM each time.
For `CCCCCCCCCCCC1=C(O)C(=O)C=C(O)C1=O`, the TGI in the experiment with A549 NSCLC turned out to be 13.4 µM; with CAKI-1 renal, 15.7 µM; with COLO 205 colon, 27.9 µM; in the experiment with NCI-H460 lung it was 9.98 µM; in the experiment on SK-MEL-5 melanoma, 10.4 µM; with SK-OV-3 ovarian, 21.2 µM. For the same compound, the TGI stood at 25.7 µM in the experiment with SNB-19 CNS and 14 µM with UO-31 renal.
As to `CCCCSC1=N/C(=C\c2ccccc2O)C(Cl)=N1`, the TGI in the experiment on A549 NSCLC, with CAKI-1 renal, in the experiment with COLO 205 colon, in the experiment on HS 578T breast, with M14 melanoma and in the experiment with NCI-H460 lung was more than 100 µM in each case. Further, the TGI in the experiment on SK-OV-3 ovarian, in the experiment with SNB-19 CNS and in the experiment with UO-31 renal was more than 100 µM throughout.
Regarding `COc1ccc(Sc2ccccc2[N+](=O)[O-])cc1`, the TGI in the experiment on A549 NSCLC is more than 100 µM; with COLO 205 colon it was 29.7 µM; with M14 melanoma, more than 100 µM; in the experiment with NCI-H460 lung it was more than 100 µM; in the experiment with SK-MEL-5 melanoma, more than 100 µM; in the experiment on SK-OV-3 ovarian, more than 100 µM. Moreover, the TGI in the experiment with SNB-19 CNS and with UO-31 renal was more than 100 µM each time.
As to `CCN(CCCl)c1ccc(NC(=O)c2cc(C(=O)NCCN(C)C)cc(C(=O)Nc3ccc(N(CC)CCCl)cc3)c2)cc1`, the TGI with A549 NSCLC is 25.7 µM; in the experiment with CAKI-1 renal, more than 100 µM; in the experiment on HS 578T breast, 12.4 µM; in the experiment with M14 melanoma, 28.2 µM; in the experiment with NCI-H460 lung, 28 µM; in the experiment with SK-MEL-5 melanoma, 30.7 µM. In addition, the figures for the TGI with SK-OV-3 ovarian, in the experiment on SNB-19 CNS and in the experiment on UO-31 renal were 19.5 µM, 19.9 µM and more than 100 µM, respectively.
As to `Cn1c(=O)c2c(n(C)c1=O)n1c(=O)c3ccccc3nc1n2C`, the TGI with A549 NSCLC, in the experiment with CAKI-1 renal, with COLO 205 colon, in the experiment on HS 578T breast, in the experiment on M14 melanoma and in the experiment with SK-MEL-5 melanoma was more than 100 µM in each case. The TGI with SK-OV-3 ovarian, in the experiment on SNB-19 CNS and in the experiment on UO-31 renal was more than 100 µM throughout.
Turning to `Nc1nc(N)c2ncn(Cc3ccccc3)c2n1`, the TGI with A549 NSCLC, in the experiment with CAKI-1 renal, with COLO 205 colon, with HS 578T breast, with M14 melanoma and with SK-MEL-5 melanoma was more than 100 µM throughout. Besides, the TGI with SK-OV-3 ovarian, in the experiment on SNB-19 CNS and in the experiment on UO-31 renal was more than 100 µM throughout.
For the compound `O=C(c1ccccc1)n1c2ccc(Br)cc2c2nc3ccccc3nc21`, the TGI in the experiment on CAKI-1 renal, with COLO 205 colon, in the experiment with M14 melanoma, in the experiment on NCI-H460 lung, in the experiment on SK-MEL-5 melanoma and with SNB-19 CNS was more than 100 µM each time. The compound also displayed a TGI with UO-31 renal of more than 100 µM.
On to `COc1cc(O)c2c(=O)c(O)c(-c3ccc(O)c(O)c3)oc2c1`, for which the TGI with A549 NSCLC was 50.3 µM; in the experiment with CAKI-1 renal, 15.6 µM; in the experiment on COLO 205 colon, 32.5 µM; with M14 melanoma, 42.6 µM; in the experiment with NCI-H460 lung it was 20.6 µM; in the experiment on SK-MEL-5 melanoma, 58.6 µM. Also, the TGI in the experiment on SK-OV-3 ovarian was 56.9 µM; with SNB-19 CNS, more than 100 µM; in the experiment on UO-31 renal, 42.1 µM.
Regarding `Cn1c(=O)c(C#N)c(O)c2cc3ccccc3nc21`, the TGI in the experiment on A549 NSCLC, in the experiment with CAKI-1 renal, in the experiment with COLO 205 colon, in the experiment on M14 melanoma, with NCI-H460 lung and in the experiment with SK-MEL-5 melanoma was more than 100 µM in each case. Also, the TGI in the experiment with SK-OV-3 ovarian, in the experiment on SNB-19 CNS and in the experiment with UO-31 renal was more than 100 µM in each case.
For the compound `CCCCCNC(=O)OC1CCn2c1nc1c2C(=O)C(C)=C(N2CC2)C1=O` (centres undefined), the TGI came to 2.57 µM in the experiment with A549 NSCLC; 2.9 µM in the experiment on CAKI-1 renal; 2.82 µM in the experiment on COLO 205 colon; 6.24 µM with HS 578T breast; 4.04 µM with M14 melanoma; 1.05 µM in the experiment on NCI-H460 lung. The figures for the TGI in the experiment on SK-MEL-5 melanoma, in the experiment with SNB-19 CNS and in the experiment on UO-31 renal were 1.73 µM, 11.5 µM and 3.87 µM, respectively.
Consider `CSC(=NCCCN=C(NS(=O)(=O)c1ccc(Cl)cc1)SC)NS(=O)(=O)c1ccc(Cl)cc1`, for which the TGI was more than 100 µM in the experiment with CAKI-1 renal; 51.6 µM in the experiment on COLO 205 colon; more than 100 µM with M14 melanoma; more than 100 µM in the experiment with NCI-H460 lung; more than 100 µM with SK-OV-3 ovarian; more than 100 µM with SNB-19 CNS. In the experiment on UO-31 renal, this compound showed a TGI of 40.5 µM.
